Results: PubChem BioAssay (NCI)
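How tested: cells in 96-well plates exposed to compound for 48 hours at five concentrations. The concentration for 50% growth inhibition is given as GI50. At the TGI there is no net growth.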

Key:
Assay in all cases: NCI tumour cell line growth inhibition, 48 h
[1] = system: CCRF-CEM leukemia
[2] = system: DU-145 prostate
[3] = system: HCT-15 colon
[4] = system: NCI-H23 lung
[5] = system: OVCAR-4 ovarian
[6] = system: SF-268 CNS
[7] = system: SK-MEL-2 melanoma
[8] = system: UO-31 renal
[9] = system: HL-60(TB) leukemia
[10] = system: MOLT-4 leukemia

SMILES	GI50 [1]	TGI [1]	GI50 [2]	TGI [2]	GI50 [3]	TGI [3]	GI50 [4]	TGI [4]	GI50 [5]	TGI [5]	GI50 [6]	TGI [6]	GI50 [7]	TGI [7]	GI50 [8]	TGI [8]	GI50 [9]	TGI [9]	GI50 [10]	TGI [10]
Clc1c(Cl)[n+](Cc2ccc3ccccc3c2)cn1Cc1ccc2ccccc2c1	2.89 µM	7.06 µM	1.53 µM	3.01 µM	1.82 µM	3.62 µM	1.35 µM	3.15 µM	1.36 µM	3 µM	1.22 µM	2.55 µM	1.67 µM	3.24 µM	1.72 µM	4.56 µM				
OC(CNc1ccnc2cc(Cl)ccc12)CNc1ccnc2cc(Cl)ccc12			1.96 µM	3.76 µM	17.2 µM	44.6 µM	2.79 µM	7.77 µM	1.64 µM	3.34 µM					17 µM	38 µM	1.82 µM	3.79 µM		
C[C@@H](Oc1cc(-n2cnc3ccc(OC4CCN(C)CC4)cc32)sc1C(N)=O)c1ccccc1Cl	0.00953 µM	4.19 µM			0.0827 µM	3.55 µM	0.0183 µM	5.18 µM	1.62 µM	9.09 µM	0.022 µM	4.69 µM			1.74 µM	5.95 µM	0.00871 µM	2.92 µM	0.0123 µM	5.19 µM
CN(CCS(=O)(=O)N1C(=O)C2CCCN2C(=O)[C@@H]1Cc1ccccc1)C(=O)OCc1ccccc1 (some centres undefined)		> 100 µM				> 100 µM		> 100 µM		> 100 µM		> 100 µM				> 100 µM		27.4 µM		53.5 µM
CCCCCCCCCCCCCCCC1=NCC[N+]1(CCO)CCO					1.94 µM	4.48 µM	2.16 µM	5.08 µM	4.75 µM	26.5 µM	1.71 µM	3.46 µM	2.89 µM	10.3 µM	1.4 µM	3.33 µM	0.442 µM	2.61 µM	1.8 µM	4.15 µM
O=C1[C@H]2ON(c3ccccc3)C(c3ccc([N+](=O)[O-])cc3)[C@H]2C(=O)N1c1ccc(Cc2ccc(N3C(=O)[C@@H]4ON(c5ccccc5)C(c5ccc([N+](=O)[O-])cc5)[C@@H]4C3=O)cc2)cc1 (some centres undefined)		> 100 µM				> 100 µM		> 100 µM		> 100 µM		> 100 µM		> 100 µM		> 100 µM		> 100 µM		> 100 µM
CC1=N/C(=C/c2ccc3c(c2)OCO3)C(=O)O1		> 100 µM				> 100 µM		> 100 µM		> 100 µM		> 100 µM		> 100 µM		> 100 µM				> 100 µM
CCC[C@H]1O[C@@H]2CC(=O)O[C@@H]2C2=C1C(=O)C=CC2=O		> 47.9 µM				32.4 µM		18.5 µM		29.9 µM		18.7 µM		38.6 µM		32.5 µM		37.7 µM		8.98 µM
CC(C)(C)C1=CC(=C(P(=O)(O)O)P(=O)(O)O)C=C(C(C)(C)C)C1=O		> 50 µM				> 50 µM		> 50 µM		> 50 µM		> 50 µM		> 50 µM		> 50 µM		> 50 µM		> 50 µM
C=C[C@@H](C)[C@]1(C(=O)OC)CCCC12OCCO2		> 100 µM				> 100 µM				> 100 µM		> 100 µM		> 100 µM		> 100 µM		> 100 µM		> 100 µM
COc1ccc(Cc2c3cc(O)c(=O)cc-3ccn2C)cc1		> 76.3 µM						> 100 µM		> 100 µM		98.2 µM		> 100 µM		> 73 µM		> 100 µM		> 81 µM
C/C(=N\N=C(N)N)C(CN1CCCCC1)C(c1ccccc1)c1c(O)c2ccccc2oc1=O (centres undefined)		> 100 µM				> 100 µM		> 100 µM		> 100 µM		> 100 µM		> 100 µM				> 100 µM		
Cc1c(C)c2ccc3oc4ccccc4c3c2oc1=O		> 100 µM				> 100 µM		> 100 µM		> 100 µM		> 100 µM				> 100 µM		> 100 µM		> 100 µM
OCC1C(OCc2ccccc2)C(OCc2ccccc2)C(OCc2ccccc2)CN1Cc1ccccc1 (centres undefined)		> 100 µM		> 100 µM		> 100 µM		53.3 µM		> 100 µM		> 100 µM				37.3 µM				> 100 µM
CCOC(OC(C)=O)[C@@H]1C=C[C@H](C)N(c2ccc([N+](=O)[O-])cc2)O1 (some centres undefined)		> 21.8 µM				6.77 µM		16.2 µM		15.4 µM		15.6 µM		13.5 µM		9.16 µM		4.79 µM		5.49 µM
CSc1ccc2c(cc1=O)[C@@H](NC(=O)c1cccc([N+](=O)[O-])c1)CCc1cc(O)c(O)c(O)c1-2		> 100 µM				> 100 µM		> 100 µM		> 100 µM		> 100 µM		> 100 µM		> 100 µM		> 100 µM		53.1 µM
CC(C)N(C(=O)C12C3C4C5(C#N)C3C1(C#N)C5C42C#N)C(C)C (centres undefined)		> 100 µM						> 100 µM		> 100 µM		> 100 µM		> 100 µM		> 100 µM		> 100 µM		> 100 µM
O=C(CCC(=O)Nc1ccc(Cl)c(Cl)c1)Cc1nc2ccccc2o1		> 100 µM				> 100 µM		> 100 µM		> 100 µM		> 100 µM		> 100 µM		> 100 µM		> 100 µM		> 100 µM
COc1cc2cc(OC(C)=O)c3cc4c(cc3c2c(OC)c1OC)OCO4		> 100 µM				> 100 µM		> 100 µM		> 100 µM		> 100 µM		> 100 µM		> 100 µM		> 100 µM		> 100 µM
Cc1nc2sccn2c1C(=O)NN		> 100 µM				> 100 µM		> 100 µM				> 100 µM		> 100 µM				> 100 µM		> 100 µM
O=C(C(=O)c1cc2ccccc2[nH]1)c1cc2ccccc2[nH]1		> 347 µM				> 347 µM		> 347 µM		299 µM		> 347 µM		> 347 µM		> 347 µM		> 347 µM		> 347 µM
NCCSSCc1ccccc1CSSCCN						> 100 µM		> 100 µM		> 100 µM		> 100 µM				> 100 µM		29.6 µM		> 100 µM
